# Compound: CC[C@@H]1C(=O)N(C)c2cnc(Nc3ccc(C(=O)NC4CCN(C)CC4)cc3OC)nc2N1C1CCCC1 [BI-2536] + CCNC(=O)c1noc(-c2cc(C(C)C)c(O)cc2O)c1-c1ccc(CN2CCOCC2)cc1 [Luminespib] (partner 0.01 µM)
# Assay: relative viability (nuclei count vs DMSO), 5 days (fraction); higher = more cells survive
# Details: first compound 0.01 µM
# Method in brief: (§1)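 Each reported value is a median over duplicate plates. It expresses relative viability: treated-well nuclei count divided by vehicle-well nuclei count. Lung cancer cell lines in 1536-well plates were dosed by pin tool a day after seeding, alone with one drug or with a fixed anchor-drug dose plus five library-drug doses (not always all listed) in √10 steps, and nuclei were counted after 5 days.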
row,Cell Line,relative viability
1,BEN,0.486
2,HARA,0.784
3,NCI-H322M,0.844
4,LCLC-97TM1,0.785
5,NCI-H2009,1.09
6,A-427,0.841
7,NCI-H441,0.296
8,NCI-H661,0.944
9,NCI-H1734,0.22
10,NCI-H460,0.0287
11,SK-LU-1,0.216
12,NCI-H1395,0.582
13,201T,1.02
14,NCI-H1915,0.848
15,HCC-827,0.801
16,LXF-289,0.624

row,Cell Line,relative viability
1,NCI-H23,0.231
2,NCI-H647,0.13
3,CAL-12T,0.774
4,NCI-H1651,0.689
5,EPLC-272H,0.293
6,NCI-H2228,0.161
7,NCI-H1792,0.485
8,NCI-H1355,0.612
9,NCI-H3122,0.11
10,NCI-H1437,1.14
11,NCI-H1755,0.291
12,NCI-H2023,0.774
13,HCC-15,0.265
14,NCI-H1793,0.201
15,PC-14,0.116

# Same assay, conditions: first compound 0.03162 µM
row,Cell Line,relative viability
1,BEN,0.611
2,HARA,1.46
3,NCI-H322M,0.509
4,LCLC-97TM1,0.641
5,NCI-H2009,0.94
6,A-427,0.829
7,NCI-H441,0.32
8,NCI-H661,0.936
9,NCI-H1734,0.157
10,NCI-H460,0.0394
11,NCI-H2347,0.517
12,SK-LU-1,0.2
13,NCI-H1395,0.605
14,201T,0.999
15,NCI-H1915,0.379
16,HCC-827,0.35

row,Cell Line,relative viability
1,LXF-289,0.533
2,NCI-H23,0.212
3,NCI-H647,0.193
4,CAL-12T,0.229
5,NCI-H1651,1.04
6,EPLC-272H,0.166
7,NCI-H2228,0.179
8,NCI-H1792,0.432
9,NCI-H1355,0.547
10,NCI-H3122,0.0932
11,NCI-H1437,0.961
12,NCI-H1755,0.416
13,NCI-H2023,0.755
14,HCC-15,0.339
15,NCI-H1793,0.167
16,PC-14,0.171

# Same assay, conditions: first compound 0.1 µM
row,Cell Line,relative viability
1,BEN,0.282
2,HARA,0.148
3,NCI-H322M,0.439
4,LCLC-97TM1,0.504
5,NCI-H2009,0.696
6,A-427,0.525
7,NCI-H441,0.288
8,NCI-H661,0.347
9,NCI-H1734,0.137
10,NCI-H460,0.0295
11,NCI-H2347,0.41
12,SK-LU-1,0.167
13,NCI-H1395,0.511
14,201T,1.05
15,NCI-H1915,0.219
16,HCC-827,0.401

row,Cell Line,relative viability
1,LXF-289,0.319
2,NCI-H23,0.182
3,NCI-H647,0.141
4,CAL-12T,0.173
5,NCI-H1651,0.333
6,EPLC-272H,0.153
7,NCI-H2228,0.183
8,NCI-H1792,0.388
9,NCI-H1355,0.546
10,NCI-H3122,0.107
11,NCI-H1437,0.729
12,NCI-H1755,0.298
13,NCI-H2023,0.107
14,HCC-15,0.144
15,NCI-H1793,0.137
16,PC-14,0.111

# Same assay, conditions: first compound 0.3162 µM
row,Cell Line,relative viability
1,BEN,0.158
2,HARA,0.0637
3,NCI-H322M,0.409
4,LCLC-97TM1,0.14
5,NCI-H2009,0.16
6,A-427,0.144
7,NCI-H441,0.237
8,NCI-H661,0.296
9,NCI-H1734,0.122
10,NCI-H460,0.0298
11,NCI-H2347,0.378
12,SK-LU-1,0.174
13,NCI-H1395,0.361
14,201T,0.349
15,NCI-H1915,0.0675
16,HCC-827,0.203

row,Cell Line,relative viability
1,LXF-289,0.0739
2,NCI-H23,0.225
3,NCI-H647,0.0872
4,CAL-12T,0.124
5,NCI-H1651,0.146
6,EPLC-272H,0.102
7,NCI-H2228,0.145
8,NCI-H1792,0.229
9,NCI-H1355,0.2
10,NCI-H3122,0.0899
11,NCI-H1437,0.2
12,NCI-H1755,0.283
13,NCI-H2023,0.0867
14,HCC-15,0.116
15,NCI-H1793,0.168
16,PC-14,0.107

# Same assay, conditions: first compound 1 µM
row,Cell Line,relative viability
1,BEN,0.217
2,HARA,0.0578
3,NCI-H322M,0.303
4,LCLC-97TM1,0.175
5,NCI-H2009,0.0773
6,A-427,0.137
7,NCI-H441,0.271
8,NCI-H661,0.257
9,NCI-H1734,0.133
10,NCI-H460,0.0252
11,NCI-H2347,0.272
12,SK-LU-1,0.169
13,NCI-H1395,0.339
14,201T,0.318
15,NCI-H1915,0.0811
16,HCC-827,0.138

row,Cell Line,relative viability
1,LXF-289,0.0875
2,NCI-H23,0.236
3,NCI-H647,0.116
4,CAL-12T,0.202
5,NCI-H1651,0.139
6,EPLC-272H,0.0894
7,NCI-H2228,0.124
8,NCI-H1792,0.28
9,NCI-H1355,0.187
10,NCI-H3122,0.0757
11,NCI-H1437,0.164
12,NCI-H1755,0.327
13,NCI-H2023,0.0902
14,HCC-15,0.134
15,NCI-H1793,0.14
16,PC-14,0.108

# Compound: CC[C@@H]1C(=O)N(C)c2cnc(Nc3ccc(C(=O)NC4CCN(C)CC4)cc3OC)nc2N1C1CCCC1 [BI-2536] + C[C@]1(O)C[C@@H](c2nc(-c3ccc4ccc(-c5ccccc5)nc4c3)c3c(N)nccn32)C1 [Linsitinib] (partner 1 µM)
# Assay: as above
# Details: first compound 0.01 µM
# Method in brief: as §1
row,Cell Line,relative viability
1,BEN,0.876
2,HARA,0.984
3,NCI-H322M,0.921
4,LCLC-97TM1,0.157
5,NCI-H2009,1.21
6,A-427,1.15
7,NCI-H441,0.521
8,NCI-H661,0.458
9,NCI-H1734,0.947
10,NCI-H460,0.844
11,NCI-H2347,0.947
12,SK-LU-1,1.04
13,NCI-H1395,0.928
14,201T,1.07
15,NCI-H1915,1.12
16,HCC-827,1.08

row,Cell Line,relative viability
1,LXF-289,0.988
2,NCI-H23,0.536
3,NCI-H647,1.15
4,CAL-12T,0.913
5,NCI-H1651,0.976
6,EPLC-272H,1.12
7,NCI-H2228,0.692
8,NCI-H1792,0.585
9,NCI-H1355,0.877
10,NCI-H3122,1.03
11,NCI-H1437,1.03
12,NCI-H1755,1.03
13,NCI-H2023,0.67
14,HCC-15,0.921
15,NCI-H1793,0.939
16,PC-14,0.988

# Same assay, conditions: first compound 0.03162 µM
row,Cell Line,relative viability
1,BEN,0.874
2,HARA,1.2
3,NCI-H322M,0.835
4,LCLC-97TM1,0.239
5,NCI-H2009,1.18
6,A-427,1.23
7,NCI-H441,0.575
8,NCI-H661,0.567
9,NCI-H1734,0.896
10,NCI-H460,0.755
11,NCI-H2347,0.929
12,SK-LU-1,1.19
13,NCI-H1395,0.785
14,201T,0.866
15,NCI-H1915,1.05
16,HCC-827,1.01

row,Cell Line,relative viability
1,LXF-289,0.892
2,NCI-H23,0.542
3,NCI-H647,1.15
4,CAL-12T,0.808
5,NCI-H1651,1.01
6,EPLC-272H,1.15
7,NCI-H2228,1.06
8,NCI-H1792,0.634
9,NCI-H1355,0.889
10,NCI-H3122,1.06
11,NCI-H1437,0.901
12,NCI-H1755,0.992
13,NCI-H2023,0.667
14,HCC-15,0.965
15,NCI-H1793,0.85
16,PC-14,0.987

# Same assay, conditions: first compound 0.1 µM
row,Cell Line,relative viability
1,BEN,0.83
2,HARA,0.969
3,NCI-H322M,1.04
4,LCLC-97TM1,0.168
5,NCI-H2009,1.14
6,A-427,1.08
7,NCI-H441,0.321
8,NCI-H661,0.709
9,NCI-H1734,0.859
10,NCI-H460,0.28
11,NCI-H2347,0.967
12,SK-LU-1,1.02
13,NCI-H1395,0.633
14,201T,1.07
15,NCI-H1915,1.03
16,HCC-827,0.947

row,Cell Line,relative viability
1,LXF-289,0.845
2,NCI-H23,0.644
3,NCI-H647,1.11
4,CAL-12T,0.852
5,NCI-H1651,0.878
6,NCI-H2228,0.63
7,NCI-H1792,0.495
8,NCI-H1355,0.856
9,NCI-H3122,1.01
10,NCI-H1437,0.941
11,NCI-H1755,0.971
12,NCI-H2023,0.606
13,HCC-15,0.815
14,NCI-H1793,1.03
15,PC-14,0.943

# Same assay, conditions: first compound 0.3162 µM
row,Cell Line,relative viability
1,BEN,0.658
2,HARA,0.0681
3,NCI-H322M,0.668
4,LCLC-97TM1,0.143
5,NCI-H2009,0.394
6,A-427,1.13
7,NCI-H441,0.126
8,NCI-H661,0.232
9,NCI-H1734,0.238
10,NCI-H460,0.0093
11,NCI-H2347,0.617
12,SK-LU-1,0.3
13,NCI-H1395,0.544
14,201T,1
15,NCI-H1915,0.625
16,HCC-827,0.796

row,Cell Line,relative viability
1,LXF-289,0.069
2,NCI-H23,0.191
3,NCI-H647,0.108
4,CAL-12T,0.165
5,NCI-H1651,0.119
6,EPLC-272H,0.143
7,NCI-H2228,0.116
8,NCI-H1792,0.444
9,NCI-H1355,0.227
10,NCI-H3122,0.184
11,NCI-H1437,0.123
12,NCI-H1755,0.455
13,NCI-H2023,0.0984
14,HCC-15,0.28
15,NCI-H1793,0.211
16,PC-14,0.727

# Same assay, conditions: first compound 1 µM
row,Cell Line,relative viability
1,BEN,0.222
2,HARA,0.0677
3,NCI-H322M,0.339
4,LCLC-97TM1,0.113
5,NCI-H2009,0.294
6,A-427,0.304
7,NCI-H441,0.133
8,NCI-H661,0.2
9,NCI-H1734,0.228
10,NCI-H460,0.0128
11,NCI-H2347,0.549
12,SK-LU-1,0.303
13,NCI-H1395,0.474
14,201T,0.345
15,NCI-H1915,0.143
16,HCC-827,0.268

row,Cell Line,relative viability
1,LXF-289,0.0799
2,NCI-H23,0.138
3,NCI-H647,0.0822
4,CAL-12T,0.286
5,NCI-H1651,0.0863
6,EPLC-272H,0.0967
7,NCI-H2228,0.155
8,NCI-H1792,0.131
9,NCI-H1355,0.178
10,NCI-H3122,0.224
11,NCI-H1437,0.0942
12,NCI-H1755,0.272
13,NCI-H2023,0.109
14,HCC-15,0.143
15,NCI-H1793,0.205

# Source: the supplement of paper PMC10307832
